Counter-ions that a name gives are not always drawn. Like-named read-outs stand apart in the source and are kept apart here.
Biological target: T1, Human TRPA1 (Homo sapiens, UniProt O75762)
T1 construct: expressed in transfected cells; host or cells: CHO cells (grown with 400 μg/ml G-418)
Experiment: 45Calcium uptake assay: inhibition of AITC induced cellular uptake of radioactive calcium
Assay type: cell-based
Settings: human TRPA1 expressing CHO cells, AITC 30 μM
Procedure: The illustrative examples of the present invention were screened for TRPA1 activity according to a modified procedure described in (a) Tóth, A. et al. Life Sciences, 2003, 73, 487-498. ([…]. et al, Proc. Natl. Acad. Sci. U.S.A., 2007, 104, 13525-13530. The screening of the compounds can be carried out by other methods and procedures known to persons skilled in the art. Screening for TRPA1 Antagonist Using the ^45Calcium Uptake Assay: The inhibition of TRPA1 receptor activation was measured as inhibition of allyl isothiocyanate (AITC) induced cellular uptake of radioactive calcium. Test compounds were dissolved in 100% DMSO to prepare 10 mM stock and then diluted using plain medium with 0.1% BSA and 1.8 mM CaCl2 to get the desired concentration. The final concentration of DMSO in the reaction was 0.5% (v/v). Human TRPA1 expressing CHO cells were grown in F-12 DMEM medium with 10% FBS, 1% penicillin-streptomycin solution, and 400 μg/ml of G-418. Cells were seeded 24 h prior to the assay in 96 well plates so as to get 50,000 cells per well on the day of experiment. Cells were treated with the test compounds for 10 minutes followed by the addition of AITC at a final concentration of 30 μM and 5 μCi/ml^45Ca^+2 for 3 minutes. Cells were washed and lysed using a buffer containing 1% Triton X-100, 0.1% deoxycholate and 0.1% SDS. Radioactivity in the lysate was measured in a Packard TopCount after addition of liquid scintillant. (Toth et al, Life Sciences (2003) 73, 487-498; McNamara C R et al, Proceedings of the National Academy of Sciences, (2007) 104, 13525-13530). Concentration response curves were plotted as a % of maximal response obtained in the absence of test antagonist. IC50 values can be calculated from concentration response curve by nonlinear regression analysis using GraphPad PRISM software.

[1] = 1.0 μM, read-out: Percentage inhibition at 1.0 μM
[2] = 10.0 μM, read-out: Percentage inhibition at 10.0 μM
[3] = CHO, read-out: Percentage inhibition at 1.0 μM, 1.0 μM
[4] = CHO, read-out: Percentage inhibition at 10.0 μM, 10.0 μM

T1 sequence (O75762 whole entry): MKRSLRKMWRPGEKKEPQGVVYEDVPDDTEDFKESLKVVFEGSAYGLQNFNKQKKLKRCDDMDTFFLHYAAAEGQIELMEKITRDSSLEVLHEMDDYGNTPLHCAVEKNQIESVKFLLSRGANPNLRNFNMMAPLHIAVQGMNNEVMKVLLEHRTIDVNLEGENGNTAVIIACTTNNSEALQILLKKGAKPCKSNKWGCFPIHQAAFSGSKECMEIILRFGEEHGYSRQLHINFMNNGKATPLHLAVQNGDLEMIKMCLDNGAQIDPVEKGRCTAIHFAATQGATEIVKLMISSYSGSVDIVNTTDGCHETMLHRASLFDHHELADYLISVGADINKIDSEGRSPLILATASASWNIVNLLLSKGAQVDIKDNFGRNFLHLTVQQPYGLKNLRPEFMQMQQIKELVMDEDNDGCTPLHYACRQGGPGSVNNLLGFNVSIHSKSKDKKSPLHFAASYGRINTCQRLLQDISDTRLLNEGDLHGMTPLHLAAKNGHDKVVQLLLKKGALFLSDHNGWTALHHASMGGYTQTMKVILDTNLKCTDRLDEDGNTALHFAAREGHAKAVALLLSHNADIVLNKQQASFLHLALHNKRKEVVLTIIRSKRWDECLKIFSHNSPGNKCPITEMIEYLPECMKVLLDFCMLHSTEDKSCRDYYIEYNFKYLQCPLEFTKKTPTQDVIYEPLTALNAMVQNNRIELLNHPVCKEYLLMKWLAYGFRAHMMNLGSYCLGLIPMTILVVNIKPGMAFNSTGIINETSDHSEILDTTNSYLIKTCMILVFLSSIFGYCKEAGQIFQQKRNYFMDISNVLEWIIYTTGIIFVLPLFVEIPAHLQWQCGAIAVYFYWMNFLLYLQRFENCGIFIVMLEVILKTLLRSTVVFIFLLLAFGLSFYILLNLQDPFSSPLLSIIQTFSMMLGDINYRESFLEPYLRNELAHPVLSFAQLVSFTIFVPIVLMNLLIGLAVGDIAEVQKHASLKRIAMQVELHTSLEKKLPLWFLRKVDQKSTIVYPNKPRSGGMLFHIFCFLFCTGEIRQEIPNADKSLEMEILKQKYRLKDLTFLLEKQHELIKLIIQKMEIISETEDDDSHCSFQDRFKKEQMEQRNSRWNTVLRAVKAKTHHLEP

Structure (SMILES)	inhibition at 1 µM [1]	inhibition at 10 µM [2]	IC50	inhibition at 1 µM (CHO, 1.0 μM, read-out: Percentage inhibition at 1.0 μM)	inhibition at 10 µM (CHO, 10.0 μM, read-out: Percentage inhibition at 10.0 μM)	inhibition at 1 µM [3]	inhibition at 10 µM [4]
CC(C)C(=O)OCn1c(-c2ccc(F)c(C(F)(F)F)c2F)cs/c1=N\C(=O)Cc1csc2c1c(=O)n(C)c(=O)n2C [Example 2, [4-[2,4-Difluoro-3-(trifluoromethyl)phenyl]-2-{[(1,3-dimethyl-2,4-dioxo-1,2,3,4-tetrahydrothieno[2,3-d]pyrimidin-5-yl)acetyl]imino}-1,3-thiazol-3(2H)-yl]methyl-2-methylpropanoate]	54.8%	70.2%	> 500 nM				
Cn1c(=O)c2c(CC(=O)/N=c3\scc(-c4ccc(C(F)(F)F)c(F)c4)n3COC(=O)C3CCNCC3)csc2n(C)c1=O [Example 9, [2-{[(1,3-Dimethyl-2,4-dioxo-1,2,3,4-tetrahydrothieno[2,3-d]pyrimidin-5-yl)acetyl]imino}-4-[3-fluoro-4-(trifluoromethyl)phenyl]-1,3-thiazol-3(2H)-yl]methylpiperidine-4-carboxylate hydrochloride]	80.1%	94.8%	100 to 500 nM				
Cn1c(=O)c2c(CC(=O)/N=c3\scc(-c4ccc(C(F)(F)F)c(F)c4)n3COP(=O)(O)O)csc2n(C)c1=O [Example 12, Disodium[2-{[(1,3-dimethyl-2,4-dioxo-1,2,3,4-tetrahydrothieno[2,3-d]pyrimidin-5-yl)acetyl]imino}-4-[3-fluoro-4-(trifluoromethyl)phenyl]-1,3-thiazol-3 (2H)-yl]methyl phosphate]			100 to 500 nM				
Cc1sc2c(c1CC(=O)/N=c1\scc(-c3ccc(F)c(C(F)(F)F)c3F)n1COP(=O)(O)O)c(=O)n(C)c(=O)n2C [Example 15, 4-(2,4-Difluoro-3-(trifluoromethyl)phenyl)-2-((2-(1,3,6-trimethyl-2,4-dioxo-1,2,3,4-tetrahydrothieno[2,3-(1]pyrimidin-5-yl)acetyl)imino)thiazol-3 (2H)-yl)methyl dihydrogen phosphate]	81.2%	98.5%	100 to 500 nM				
Cc1sc2c(c1CC(=O)/N=c1\scc(-c3ccc(F)c(C(F)(F)F)c3F)n1COP(=O)(O)O)c(=O)n(C)c(=O)n2C [Example 16, Disodium(4-(2,4-difluoro-3-(trifluoromethyl)phenyl)-2-((2-(1,3,6-trimethyl-2,4-dioxo-1,2,3,4-tetrahydrothieno[2,3-d]pyrimidin-5-yl)acetyl)imino)thiazol-3(2H)-yl)methyl phosphate]			> 500 nM			48.2%	92.7%
CCc1sc2c(c1CC(=O)/N=c1\scc(-c3ccc(C(F)(F)F)c(F)c3)n1COP(=O)(O)O)c(=O)n(C)c(=O)n2C [Example 17, [2-{[(6-ethyl-1,3-dimethyl-2,4-dioxo-1,2,3,4-tetrahydrothieno[2,3-d]pyrimidin-5-yl)acetyl]imino}-4-[3-fluoro-4-(trifluoromethyl)phenyl]-1,3-thiazol-3 (2H)-yl]methyl dihydrogen phosphate]	20.8%	96.8%	> 500 nM				
CCc1sc2c(c1CC(=O)/N=c1\scc(-c3ccc(C(F)(F)F)c(F)c3)n1COP(=O)(O)O)c(=O)n(C)c(=O)n2C [Example 18, Disodium[2-{[(6-ethyl-1,3-dimethyl-2,4-dioxo-1,2,3,4-tetrahydrothieno[2,3-d]pyrimidin-5-yl)acetyl]imino}-4-[3-fluoro-4-(trifluoromethyl)phenyl]-1,3-thiazol-3(2H)-yl]methyl phosphate]						30%	88.7%
Cc1oc2c(c1CC(=O)/N=c1\scc(-c3ccc(OC(F)(F)F)c(Cl)c3)n1COC(=O)C(C)(C)C)c(=O)n(C)c(=O)n2C [Example 19, [4-[3-Chloro-4-(trifluoromethoxy)phenyl]-2-{[(1,3,6-trimethyl-2,4-dioxo-1,2,3,4-tetrahydrofuro[2,3-d]pyrimidin-5-yl)acetyl]imino}-1,3-thiazol-3 (2H)-yl]methyl 2,2-dimethylpropanoate]	70.3%	96.7%	100 to 500 nM				
CC[C@H](C)[C@H](N)C(=O)OCn1c(-c2ccc(OC(F)(F)F)c(Cl)c2)cs/c1=N\C(=O)Cc1c(C)oc2c1c(=O)n(C)c(=O)n2C [Example 22, [4-[3-Chloro-4-(trifluoromethoxy)phenyl]-2-{[(1,3,6-trimethyl-2,4-dioxo-1,2,3,4-tetrahydrofuro[2,3-d]pyrimidin-5-yl)acetyl]imino}-1,3-thiazol-3 (2H)-yl]methyl L-isoleucinate hydrochloride]	99.2%	99.6%	100 to 500 nM				
Cn1c(=O)c2c(CC(=O)/N=c3\scc(-c4ccc(C(F)(F)F)c(F)c4F)n3COP(=O)(O)O)nsc2n(C)c1=O [Example 31, [4-[2,3-Difluoro-4-(trifluoromethyl)phenyl]-2-{[(5,7-dimethyl-4,6-dioxo-4,5,6,7-tetrahydro[1,2]thiazolo[5,4-d]pyrimidin-3-yl)acetyl]imino}-1,3-thiazol-3 (2H)-yl]methyl dihydrogen phosphate]	60%	99.2%	> 500 nM				
Cn1c(=O)c2c(CC(=O)N=c3scc(-c4ccc(C(F)(F)F)c(F)c4F)n3COP(=O)(O)O)nsc2n(C)c1=O [Example 32, Disodium-(4-(2,3-difluoro-4-(trifluoromethyl)phenyl)-2-((2-(5,7-dimethyl-4,6-dioxo-4,5,6,7-tetrahydroisothiazolo[5,4-d]pyrimidin-3-yl)acetyl)imino)thiazol-3 (2H)-yl)methyl phosphate]	13.8%	81%	> 500 nM				

Continued, in another order:

inhibition at 1 µM [1]	inhibition at 10 µM [2]	IC50	inhibition at 1 µM (CHO, 1.0 μM, read-out: Percentage inhibition at 1.0 μM)	inhibition at 10 µM (CHO, 10.0 μM, read-out: Percentage inhibition at 10.0 μM)	Structure (SMILES)	inhibition at 1 µM [3]	inhibition at 10 µM [4]
68.1%	90.3%	100 to 500 nM			CC(C)C(=O)OCn1c(-c2ccc(C(F)(F)F)c(F)c2)cs/c1=N\C(=O)Cc1csc2c1c(=O)n(C)c(=O)n2C [Example 1, [2-{[(1,3-Dimethyl-2,4-dioxo-1,2,3,4-tetrahydrothieno[2,3-d]pyrimidin-5-yl)acetyl]imino}-4-[3-fluoro-4-(trifluoromethyl)phenyl]-1,3-thiazol-3 (2H)-yl]methyl-2-methyl propanoate]		
		< 100 nM	98.6%	99.9%	CC(C)[C@H](N)C(=O)OCn1c(-c2ccc(F)c(C(F)(F)F)c2F)cs/c1=N\C(=O)Cc1csc2c1c(=O)n(C)c(=O)n2C [Example 5, [4-[2,4-Difluoro-3-(trifluoromethyl)phenyl]-2-{[(1,3-dimethyl-2,4-dioxo-1,2,3,4-tetrahydrothieno[2,3-d]pyrimidin-5-yl)acetyl]imino}-1,3-thiazol-3 (2H)-yl]methyl L-valinate hydrochloride]		
96.5%	98.3%	< 100 nM			Cn1c(=O)c2c(CC(=O)/N=c3\scc(-c4ccc(F)c(C(F)(F)F)c4F)n3COC(=O)[C@@H]3CCCN3)csc2n(C)c1=O [Example 8, [4-[2,4-Difluoro-3-(trifluoromethyl)phenyl]-2-{[(1,3-dimethyl-2,4-dioxo-1,2,3,4-tetrahydrothieno[2,3-d]pyrimidin-5-yl)acetyl]imino}-1,3-thiazol-3(2H)-yl]methyl L-prolinate hydrochloride]		
98.1%	99.8%	< 100 nM			Cc1oc2c(c1CC(=O)/N=c1\scc(-c3ccc(OC(F)(F)F)c(Cl)c3)n1COC(=O)[C@@H](N)Cc1ccccc1)c(=O)n(C)c(=O)n2C [Example 24, 4-[3-Chloro-4-(trifluoromethoxy)phenyl]-2-{[(1,3,6-trimethyl-2,4-dioxo-1,2,3,4-tetrahydrofuro[2,3-d]pyrimidin-5-yl)acetyl]imino}-1,3-thiazol-3(2H)-yl]methyl L-phenylalaninate hydrochloride]		
93.8%	99.3%	< 100 nM			Cc1oc2c(c1CC(=O)/N=c1\scc(-c3ccc(C(F)(F)F)c(F)c3F)n1COP(=O)(O)O)c(=O)n(C)c(=O)n2C [Example 27, 4-[2,3-Difluoro-4-(trifluoromethyl)phenyl]-2-{[(1,3,6-trimethyl-2,4-dioxo-1,2,3,4-tetrahydrofuro[2,3-d]pyrimidin-5-yl)acetyl]imino}-1,3-thiazol-3(2H)-yl]methyl dihydrogen phosphate]		
